Assays:
[1] = target: T1, CgHSD (Corynebacterium glutamicum, UniProt P08499, A384D); assay: enzyme activity inhibition, NADPH formation; type: biochemical; details: allosteric; 50 mM L-isoleucine; stated gain
T1 construct: gene hom; full-length hom in pET-28a, N-terminal His6 tag, expressed in E. coli Transetta (DE3), Ni purified; homotetramer by SEC

[2] = target: T2, CgHSD (Corynebacterium glutamicum, UniProt P08499, I397V); assay: enzyme activity inhibition, NADPH formation; type: biochemical; details: allosteric; 50 mM L-isoleucine; stated gain
T2 construct: gene hom; full-length hom in pET-28a, N-terminal His6 tag, expressed in E. coli Transetta (DE3), Ni purified; homotetramer by SEC

[3] = target: T3, CgHSD (Corynebacterium glutamicum, UniProt P08499); assay: enzyme activity inhibition, NADPH formation; type: biochemical; details: feedback inhibitor, allosteric; 5 mM L-isoleucine
T3 construct: gene hom; full-length hom in pET-28a, N-terminal His6 tag, expressed in E. coli Transetta (DE3), Ni purified; homotetramer by SEC

[4] = target: T4, CgHSD (Corynebacterium glutamicum, UniProt P08499, G378E); assay: enzyme activity inhibition, NADPH formation; type: biochemical; details: allosteric; 50 mM L-isoleucine; stated gain
T4 construct: gene hom; full-length hom in pET-28a, N-terminal His6 tag, expressed in E. coli Transetta (DE3), Ni purified; homotetramer by SEC

[5] = target: T3, CgHSD; assay: enzyme activity inhibition, NADPH formation; type: biochemical; details: feedback inhibitor, allosteric; 1 mM L-threonine
[6] = target: T4, CgHSD; assay: enzyme activity inhibition, NADPH formation; type: biochemical; details: allosteric; 50 mM L-threonine; stated gain
[7] = target: T2, CgHSD; assay: enzyme activity inhibition, NADPH formation; type: biochemical; details: allosteric; 10 mM L-threonine; stated gain
[8] = target: T1, CgHSD; assay: enzyme activity inhibition, NADPH formation; type: biochemical; details: allosteric; 10 mM L-threonine; stated gain
[9] = target: the molecule itself; assay: SEC; apparent molecular mass from a standard curve; peaks at 11.8 mL of elution volume; column and buffer not shown (Supplementary Figure S2)

T4 sequence (P08499 whole entry G378E): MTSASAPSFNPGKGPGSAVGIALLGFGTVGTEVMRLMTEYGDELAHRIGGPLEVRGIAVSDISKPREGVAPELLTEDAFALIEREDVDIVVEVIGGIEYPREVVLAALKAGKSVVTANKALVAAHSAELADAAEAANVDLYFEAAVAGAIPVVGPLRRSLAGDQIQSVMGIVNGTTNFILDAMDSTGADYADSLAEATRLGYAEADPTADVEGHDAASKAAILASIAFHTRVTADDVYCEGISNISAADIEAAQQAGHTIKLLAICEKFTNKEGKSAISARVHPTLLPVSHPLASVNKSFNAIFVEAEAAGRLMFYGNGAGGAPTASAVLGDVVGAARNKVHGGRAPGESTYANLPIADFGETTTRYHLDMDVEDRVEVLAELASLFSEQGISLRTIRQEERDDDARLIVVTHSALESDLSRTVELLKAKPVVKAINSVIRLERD

CC[C@H](C)[C@H](N)C(=O)O [L-isoleucine]
% activity maintained at 50 mM [1]: 76.5% | % activity maintained at 50 mM [2]: 50.1% | % activity loss at 5 mM [3]: > 75% | % activity maintained at 50 mM [4]: 61.0%

C[C@@H](O)[C@H](N)C(=O)O [L-threonine]
% activity loss at 1 mM [5]: > 80% | % retained activity at 50 mM [6]: 52.7% | % activity kept at 10 mM [7]: > 90% | % activity kept at 10 mM [8]: > 90%

B1: Homoserine dehydrogenase from Corynebacterium glutamicum (CgHSD), wild type (enzyme, Corynebacterium glutamicum ATCC 13032, UniProt P08499 1-445, looked up)
chain: MTSASAPSFNPGKGPGSAVGIALLGFGTVGTEVMRLMTEYGDELAHRIGGPLEVRGIAVSDISKPREGVAPELLTEDAFALIEREDVDIVVEVIGGIEYPREVVLAALKAGKSVVTANKALVAAHSAELADAAEAANVDLYFEAAVAGAIPVVGPLRRSLAGDQIQSVMGIVNGTTNFILDAMDSTGADYADSLAEATRLGYAEADPTADVEGHDAASKAAILASIAFHTRVTADDVYCEGISNISAADIEAAQQAGHTIKLLAICEKFTNKEGKSAISARVHPTLLPVSHPLASVNKSFNAIFVEAEAAGRLMFYGNGAGGAPTASAVLGDVVGAARNKVHGGRAPGESTYANLPIADFGETTTRYHLDMDVEDRVGVLAELASLFSEQGISLRTIRQEERDDDARLIVVTHSALESDLSRTVELLKAKPVVKAINSVIRLERD
notes: Homoserine dehydrogenase (hom gene) of Corynebacterium glutamicum ATCC 13032, amplified from genomic DNA into pET-28a (pET-hom); printed mass of the monomer 46.4 kDa; also called wild-type CgHSD
stoichiometry N [9]: 4

B2: Homoserine dehydrogenase from Corynebacterium glutamicum (CgHSD), I397V mutant (enzyme, Corynebacterium glutamicum ATCC 13032, UniProt P08499 1-445, looked up)
chain: MTSASAPSFNPGKGPGSAVGIALLGFGTVGTEVMRLMTEYGDELAHRIGGPLEVRGIAVSDISKPREGVAPELLTEDAFALIEREDVDIVVEVIGGIEYPREVVLAALKAGKSVVTANKALVAAHSAELADAAEAANVDLYFEAAVAGAIPVVGPLRRSLAGDQIQSVMGIVNGTTNFILDAMDSTGADYADSLAEATRLGYAEADPTADVEGHDAASKAAILASIAFHTRVTADDVYCEGISNISAADIEAAQQAGHTIKLLAICEKFTNKEGKSAISARVHPTLLPVSHPLASVNKSFNAIFVEAEAAGRLMFYGNGAGGAPTASAVLGDVVGAARNKVHGGRAPGESTYANLPIADFGETTTRYHLDMDVEDRVGVLAELASLFSEQGISLRTVRQEERDDDARLIVVTHSALESDLSRTVELLKAKPVVKAINSVIRLERD
stoichiometry N [9]: 4

B3: Homoserine dehydrogenase from Corynebacterium glutamicum (CgHSD), A384D mutant (enzyme, Corynebacterium glutamicum ATCC 13032, UniProt P08499 1-445, looked up)
chain: MTSASAPSFNPGKGPGSAVGIALLGFGTVGTEVMRLMTEYGDELAHRIGGPLEVRGIAVSDISKPREGVAPELLTEDAFALIEREDVDIVVEVIGGIEYPREVVLAALKAGKSVVTANKALVAAHSAELADAAEAANVDLYFEAAVAGAIPVVGPLRRSLAGDQIQSVMGIVNGTTNFILDAMDSTGADYADSLAEATRLGYAEADPTADVEGHDAASKAAILASIAFHTRVTADDVYCEGISNISAADIEAAQQAGHTIKLLAICEKFTNKEGKSAISARVHPTLLPVSHPLASVNKSFNAIFVEAEAAGRLMFYGNGAGGAPTASAVLGDVVGAARNKVHGGRAPGESTYANLPIADFGETTTRYHLDMDVEDRVGVLAELDSLFSEQGISLRTIRQEERDDDARLIVVTHSALESDLSRTVELLKAKPVVKAINSVIRLERD
stoichiometry N [9]: 4
